Data published in patent publication US8575145B2, “Triazolopyridine compounds as PIM kinase inhibitors” (Array BioPharma Inc., priority 2008, dated 2013).
Counter-ions that a name gives are not always drawn. Like-named read-outs stand apart in the source and are kept apart here.

Key:
[1] = target: GST-tagged recombinant full-length human PIM-2 (Homo sapiens (Human), UniProt Q9P1W9); experiment: PIM-2 Enzyme Assay
PIM-1 = PIM-1 (Homo sapiens (Human), UniProt P11309); experiment: PIM-1 Enzyme Assay; format: biochemical
Description: The amount of radiolabeled product is then measured by liquid scintillation counting. The final buffer conditions were as follows: 20 mM K^+MOPS, pH 7.4, 10 mM MgCl2, 0.005% Tween-20, 1 mM DTT. […] Incubations were carried out for 60 min at 22° C. and quenched with 75 μL of 200 mM H3PO4, filtered through a Whatman P81 plate and washed (1×200 μL and 5×100 μL ) with 200 mM H3PO4. Liquid scintillation cocktail (50 μL ) was then added per well, and the plate was counted for 30 s/well using a TopCount NXT.
One-μL aliquots of these were then transferred to the assay mixtures above to give a final concentration of DMSO of 2%. […] For each plate, percent of control (POC) values were calculated for each well. IC50's were estimated from the POC's using a standard 4-parameter logistic model. The IC50 is defined as the concentration of inhibitor at which the POC equals 50 for the fitted curve.

[2] = read-out: PIM-2 IC50, 4 μM ATP, […] PIM-2, dihydrochloride
[3] = read-out: PIM-2 IC50, 4 μM ATP, […] PIM-2

Chain of PIM-1 (P11309 whole entry, species assumed): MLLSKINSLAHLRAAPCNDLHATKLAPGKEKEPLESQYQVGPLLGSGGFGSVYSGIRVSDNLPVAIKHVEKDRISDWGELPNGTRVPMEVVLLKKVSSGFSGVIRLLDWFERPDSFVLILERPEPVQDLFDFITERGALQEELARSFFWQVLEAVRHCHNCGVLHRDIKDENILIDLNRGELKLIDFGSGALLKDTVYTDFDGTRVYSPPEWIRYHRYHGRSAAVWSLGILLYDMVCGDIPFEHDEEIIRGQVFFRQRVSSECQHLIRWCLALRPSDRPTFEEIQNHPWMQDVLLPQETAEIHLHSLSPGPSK
Chain of GST-tagged recombinant full-length human PIM-2 (Q9P1W9 whole entry): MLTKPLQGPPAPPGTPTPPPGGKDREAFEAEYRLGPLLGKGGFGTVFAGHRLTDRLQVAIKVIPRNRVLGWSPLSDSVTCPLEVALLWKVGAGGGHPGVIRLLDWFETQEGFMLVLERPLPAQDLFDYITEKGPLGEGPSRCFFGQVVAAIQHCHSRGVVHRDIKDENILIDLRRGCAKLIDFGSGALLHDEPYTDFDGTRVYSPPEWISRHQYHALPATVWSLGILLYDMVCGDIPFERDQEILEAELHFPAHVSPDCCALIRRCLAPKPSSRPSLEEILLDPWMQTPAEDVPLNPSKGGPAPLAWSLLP

| SMILES | IC50 [1, 3] [nM] | IC50 (PIM-1; 35 μM ATP, 0.25 nM PIM-1) [µM] | further results |
| --- | --- | --- | --- |
| FC1CNCCC1Oc1cccc2ccc(-c3nnc4ccccn34)nc12 (single isomer, unassigned) [Example 94, 2-([1,2,4]triazolo[4,3-a]pyridin-3-yl)-8-((cis)-3-fluoropiperidin-4-yloxy)quinoline dihydrochloride] |  |  | IC50 [1, 2]: 1000 nM; IC50 (PIM-1; dihydrochloride): 0.0194 µM |
| FC1CNCCC1Oc1cccc2ccc(-c3nnc4ccccn34)nc12 (single isomer, unassigned) [Example 95, 2-([1,2,4]triazolo[4,3-a]pyridin-3-yl)-8-((cis)-3-fluoropiperidin-4-yloxy)quinoline dihydrochloride] |  |  | IC50 [1, 2]: 482 nM; IC50 (PIM-1; dihydrochloride): 0.0098 µM |
| FC1CNCCC1Oc1cccc2ccc(-c3nnc4ccccn34)nc12 (single isomer, unassigned) [Example 96, 2-([1,2,4]triazolo[4,3-a]pyridin-3-yl)-8-((trans)-3-fluoropiperidin-4-yloxy)quinoline dihydrochloride] |  |  | IC50 [1, 2]: 1000 nM; IC50 (PIM-1; dihydrochloride): 0.0108 µM |
| FC1CNCCC1Oc1cccc2ccc(-c3nnc4ccccn34)nc12 (single isomer, unassigned) [Example 97, 2-([1,2,4]triazolo[4,3-a]pyridin-3-yl)-8-((trans)-3-fluoropiperidin-4-yloxy)quinoline dihydrochloride] |  |  | IC50 [1, 2]: 1000 nM; IC50 (PIM-1; dihydrochloride): 0.049 µM |
| CC(C)(CN)COc1cc(F)cc2ccc(-c3nnc4ccccn34)nc12 [Example 39, 3-(2-([1,2,4]triazolo[4,3-a]pyridin-3-yl)-6-fluoroquinolin-8-yloxy)-2,2-dimethylpropan-1-amine] | 26 | 0.00055 |  |
| CC(C)(CN)COc1ccc(F)c2ccc(-c3nnc4ccccn34)nc12 [Example 43, 3-(2-([1,2,4]triazolo[4,3-a]pyridin-3-yl)-5-fluoroquinolin-8-yloxy)-2,2-dimethylpropan-1-amine] | 10000 | 0.139 |  |
| c1cncc(COc2cccc3ccc(-c4nnc5ccccn45)nc23)c1 [Example 44, 2-([1,2,4]triazolo[4,3-a]pyridin-3-yl)-8-(pyridin-3-ylmethoxy)quinoline] | 7470 | 0.063 |  |
| c1cc(OCc2ccncc2)c2nc(-c3nnc4ccccn34)ccc2c1 [Example 45, 2-([1,2,4]triazolo[4,3-a]pyridin-3-yl)-8-(pyridin-4-ylmethoxy)quinoline] | 1730 | 0.0269 |  |
| FC1CCNCCC1Oc1cccc2ccc(-c3nnc4ccccn34)nc12 (stereo not shown) [Example 46, 2-([1,2,4]triazolo[4,3-a]pyridin-3-yl)-8-(5-fluoroazepan-4-yloxy)quinoline] |  | 0.001 | IC50 ([1]; PIM-2 IC50 (nM), 4 μM ATP, […] PIM-2): 96 nM |
| COC[C@@H]1CC(Oc2cccc3ccc(-c4nnc5ccccn45)nc23)CCN1 (stereo partly shown) [Example 57] | 484 | 0.004 |  |
| CC(C)(CN)COc1c(Br)ccc2ccc(-c3nnc4ccccn34)nc12 [Example 58, 3-(2-([1,2,4]triazolo[4,3-a]pyridin-3-yl)-7-bromoquinolin-8-yloxy)-2,2-dimethylpropan-1-amine dihydrochloride] | 204 |  | IC50 (PIM-1): 0.01 µM |
| Fc1ccn2c(-c3ccc4cccc(OC5CCNCC5F)c4n3)nnc2c1 (stereo not drawn) [Example 60, cis-2-(7-fluoro-[1,2,4]triazolo[4,3-a]pyridin-3-yl)-8-3-fluoropiperidin-4-yloxy)quinoline] | 1760 | 0.026 |  |
| CC(C)(CN)COc1cccc2ccc(-c3nnc4ccc(Br)cn34)nc12 [Example 63, 3-(2-(6-bromo-[1,2,4]triazolo[4,3-a]pyridin-3-yl)quinolin-8-yloxy)-2,2-dimethylpropan-1-amine dihydrochloride] |  |  | IC50 ([1]; read-out: PIM-2 IC50): 101 nM; IC50 (PIM-1): 0.00065 µM |
| CC(C)(CN)COc1cccc2ccc(-c3nnc4ccc(-c5ccccc5)cn34)nc12 [Example 65, 2,2-Dimethyl-3-(2-(6-phenyl-[1,2,4]triazolo[4,3-a]pyridin-3-yl)quinolin-8-yloxy)propan-1-amine dihydrochloride] | 174 | 0.0008 |  |
| c1cc(OCC2(CC3CC3)CCNCC2)c2nc(-c3nnc4ccccn34)ccc2c1 [Example 69, 2-([1,2,4]triazolo[4,3-a]pyridin-3-yl)-8-44-(cyclopropylmethyl)piperidin-4-yl)methoxy)quinoline dihydrochloride] | 95 |  | IC50 (PIM-1): 0.0016 µM |
| CC(C)C1(COc2cccc3ccc(-c4nnc5ccccn45)nc23)CCNCC1 [Example 70, 2-([1,2,4]triazolo[4,3-a]pyridin-3-yl)-8-((4-isopropylpiperidin-4-yl)methoxy)quinoline dihydrochloride] | 67 |  | IC50 (PIM-1): 0.00075 µM |
| OC1(COc2cccc3ccc(-c4nnc5ccccn45)nc23)CCNCC1 [Example 72] | 588 | 0.0053 |  |
| c1cc(Oc2ccncc2)c2nc(-c3nnc4ccccn34)ccc2c1 [Example 74, 2-([1,2,4]triazolo[4,3-a]pyridin-3-yl)-8-(pyridin-4-yloxy)quinoline] | 1990 | 0.151 |  |
| Nc1cc(Oc2cccc3ccc(-c4nnc5ccccn45)nc23)ccn1 [Example 75, 4-(2-([1,2,4]triazolo[4,3-a]pyridin-3-yl)quinolin-8-yloxy)pyridin-2-amine] | 8940 | 0.263 |  |
| Nc1nccc(Oc2cccc3ccc(-c4nnc5ccccn45)nc23)n1 [Example 76, 4-(2-([1,2,4]triazolo[4,3-a]pyridin-3-yl)quinolin-8-yloxy)pyrimidin-2-amine] | 10000 | 0.648 |  |
| FC1(COc2cccc3ccc(-c4nnc5ccc(Br)cn45)nc23)CCNCC1 [Example 77, 2-(6-bromo-[1,2,4]triazolo[4,3-a]pyridin-3-yl)-8-((4-fluoropiperidin-4-yl)methoxy)-quinoline dihydrochloride] |  | 0.017 | IC50 ([1]; read-out: PIM-2 IC50): 1390 nM |
| FC1(COc2cccc3ccc(-c4nnc5ccc(C6CC6)cn45)nc23)CCNCC1 [Example 79, 2-(6-cyclopropyl-[1,2,4]triazolo[4,3-a]pyridin-3-yl)-8-((4-fluoropiperidin-4-yl)methoxy)quinoline dihydrochloride] | 55 | 0.0002 |  |
| FC1(COc2cccc3ccc(-c4nnc5ccc(-c6ccccc6)cn45)nc23)CCNCC1 [Example 81, 8-((4-fluoropiperidin-4-yl)methoxy)-2-(6-phenyl-[1,2,4]triazolo[4,3-a]pyridin-3-yl)quinoline dihydrochloride] | 142 |  | IC50 (PIM-1): 0.00045 µM |
| NC(=O)CN1CCC(F)(COc2cccc3ccc(-c4nnc5ccccn45)nc23)CC1 [Example 83, 2-(4-((2-([1,2,4]triazolo[4,3-a]pyridin-3-yl)quinolin-8-yloxy)methyl)-4-fluoropiperidin-1-yl)acetamide] | 193 | 0.004 |  |
| CN1CCC(F)(COc2cccc3ccc(-c4nnc5ccccn45)nc23)CC1 [Example 84, 2-([1,2,4]triazolo[4,3-a]pyridin-3-yl)-8-((4-fluoro-1-methylpiperidin-4-yl)methoxy)quinoline dihydrochloride] | 73 |  | IC50 (PIM-1): 0.002 µM |
| OCCN1CCC(F)(COc2cccc3ccc(-c4nnc5ccccn45)nc23)CC1 [Example 85, 2-(4-((2-([1,2,4]triazolo[4,3-a]pyridin-3-yl)quinolin-8-yloxy)methyl)-4-fluoropiperidin-1-yl)ethanol dihydrochloride] |  | 0.002 | IC50 ([1]; read-out: PIM-2 IC50): 105 nM |
